Data as given in patent US20160346249A1 (priority 2012, published 2016).
Several values for one entry are separate records, joined by “and”; a condition that tells them apart may be missing. Equal values may be shown once.

Assay: Single rising oral dose (10-150 mg IR) safety, tolerance and pharmacokinetics in healthy male volunteers
Type: in vivo, human
Description: Fifty (50) healthy male adult volunteers, between the ages of 19 and 43 years (mean±SD: 28±6 years) were enrolled in the study and randomized to the […] different treatments. […] The subjects were divided into panels of 10 subjects/dose group. Seven subjects in each group received the test drug, while three received an identical-looking placebo. […] The five treatments are outlined below:
The subjects were admitted to the clinic the night before dose administration and fasted from approximately 10 hour before to 4 hour after ingestion of the study capsules. Treatments were administered with 240 mL of mineral water between 08:00 and 09:00 hours. […] The assay calibration range was 5 to 2,000 ng/mL.
The values of Cmax and Tmax were the observed value for each subject. The terminal elimination rate constant λz was derived from the log-linear disposition phase of the concentration-time curve using linear least-squares regression for which the program determined the appropriate number of terminal points to calculate λz. At least three terminal plasma concentrations were used for estimating λz. The t1/2 (HL_Lambda_z) was calculated as ln 2/λz. AUC0-t and AUMC0-t were determined using the linear trapezoidal rule for each increasing concentration and the log-trapezoidal rule for descending concentrations. The AUC values from the last quantifiable time point to infinity was calculated as Ct/λz. This value was added to AUC0-t to obtain AUC0-∞. […] Oral clearance was calculated as Dose/AUC0-∞. The 90% confidence intervals were calculated for all of the variables.
SAS, version 8.2, was used for the analysis.

[1] = 10 mg, individual subject, listed as DOV 21,947
[2] = 25 mg, individual subject, listed as DOV 21,947
[3] = 50 mg, individual subject, listed as DOV 21,947
[4] = 100 mg, individual subject, listed as DOV 21,947
[5] = 150 mg, individual subject, listed as DOV 21,947

## Clc1ccc([C@]23CNC[C@H]2C3)cc1Cl [amitifadine, (+)-1-(3,4-dichlorophenyl)-3-azabicyclo[3.1.0]hexane]
10 mg, Geometric Mean
  λ2: 0.204 h⁻¹
10 mg, Maximum
  AUC0-∞: 551 ng·h/mL
  AUC(0-t): 492 ng·h/mL
  MRT0-∞: 6.09 h
  t1/2: 3.90 h
  λ2: 0.233 h⁻¹
10 mg, Mean (n = 7)
  λz: 0.205 h⁻¹
10 mg, Median
  λ2: 0.200 h⁻¹
10 mg, Minimum
  AUC0-∞: 257 ng·h/mL
  AUC(0-t): 227 ng·h/mL
  MRT0-∞: 4.72 h
  t1/2: 2.98 h
  λ2: 0.178 h⁻¹
[1]
  MRT0-∞: 5.47 h and 4.72 h and 6.09 h and 4.84 h
  t1/2: 3.63 h and 3.90 h and 3.09 h and 2.98 h and 3.79 h and 3.08 h
  λ2: 0.200 hr^−1 and 0.191 hr^−1 and 0.178 hr^−1 and 0.225 hr^−1 (2×) and 0.233 hr^−1 and 0.183 hr^−1
25 mg, Geometric Mean
  λ2: 0.234 h⁻¹
25 mg, Maximum
  AUC0-∞: 2350 ng·h/mL
  AUC(0-t): 2220 ng·h/mL
  MRT0-∞: 6.46 h
  t1/2: 5.25 h
  λ2: 0.493 h⁻¹
25 mg, Mean (n = 7)
  λz: 0.251 h⁻¹
25 mg, Mean (n = 7), listed as DOV 21,947
  AUC(0-t): 1380 ng·h/mL
25 mg, Median
  λ2: 0.231 h⁻¹
25 mg, Minimum
  AUC0-∞: 1080 ng·h/mL
  AUC(0-t): 995 ng·h/mL
  MRT0-∞: 4.26 h
  t1/2: 1.41 h
  λ2: 0.132 h⁻¹
[2]
  MRT0-∞: 4.26 h and 6.46 h and 4.98 h and 4.29 h and 4.39 h
  λ2: 0.222 hr^−1 and 0.231 hr^−1 (2×) and 0.132 hr^−1 and 0.191 hr^−1 and 0.258 hr^−1 and 0.493 hr^−1
50 mg, Geometric Mean
  λ2: 0.190 h⁻¹
50 mg, Maximum
  AUC0-∞: 3270 ng·h/mL
  AUC(0-t): 3220 ng·h/mL
  MRT0-∞: 5.66 h
  t1/2: 4.39 h
  λ2: 0.245 h⁻¹
50 mg, Mean (n = 7)
  λz: 0.192 h⁻¹
50 mg, Median
  λ2: 0.191 h⁻¹
50 mg, Minimum
  AUC0-∞: 1690 ng·h/mL
  AUC(0-t): 1530 ng·h/mL
  MRT0-∞: 4.38 h
  t1/2: 2.62 h
  λ2: 0.158 h⁻¹
[3]
  MRT0-∞: 4.38 h and 5.43 h and 5.22 h and 5.60 h and 5.66 h
  λ2: 0.213 h⁻¹ and 0.245 h⁻¹ and 0.199 h⁻¹ and 0.158 h⁻¹ and 0.191 h⁻¹ and 0.167 h⁻¹ and 0.170 h⁻¹
100 mg, Geometric Mean
  λ2: 0.167 h⁻¹
100 mg, Maximum
  AUC0-∞: 5960 ng·h/mL
  AUC(0-t): 5900 ng·h/mL
  MRT0-∞: 7.03 h
  t1/2: 4.35 h
  λ2: 0.177 h⁻¹
100 mg, Mean (n = 7)
  λz: 0.167 h⁻¹
100 mg, Median
  λ2: 0.164 h⁻¹
100 mg, Minimum
  AUC0-∞: 4030 ng·h/mL
  AUC(0-t): 3960 ng·h/mL
  MRT0-∞: 4.85 h
  t1/2: 3.92 h
  λ2: 0.159 h⁻¹
[4]
  MRT0-∞: 7.03 h and 5.71 h and 5.63 h and 4.85 h
  λ2: 0.176 hr^−1 and 0.162 hr^−1 and 0.173 hr^−1 and 0.159 hr^−1 (2×) and 0.164 hr^−1 and 0.177 hr^−1
150 mg, Geometric Mean
  λ2: 0.191 h⁻¹
150 mg, Maximum
  AUC0-∞: 11100 ng·h/mL
  AUC(0-t): 10900 ng·h/mL
  MRT0-∞: 7.14 h
  t1/2: 4.87 h
  λ2: 0.288 h⁻¹
150 mg, Mean (n = 7)
  λz: 0.195 h⁻¹
150 mg, Mean (n = 7), listed as DOV 21,947
  t1/2: 3.91 h
150 mg, Median
  λ2: 0.189 h⁻¹
150 mg, Minimum
  AUC0-∞: 6590 ng·h/mL
  AUC(0-t): 6390 ng·h/mL
  MRT0-∞: 4.66 h
  t1/2: 2.41 h
  λ2: 0.142 h⁻¹
[5]
  MRT0-∞: 7.03 h and 6.70 h and 4.66 h and 7.14 h
  λ2: 0.177 h⁻¹ and 0.142 h⁻¹ and 0.189 h⁻¹ and 0.288 h⁻¹ and 0.200 h⁻¹ and 0.159 h⁻¹ and 0.209 h⁻¹
All doses
  variability of Cmax and AUC: ≤ 30%
human, plasma, oral, 10 mg, individual subject, read-out: MRT0-∞
  MRT inf: 5.36 h
